Measured values from ChEMBL document CHEMBL4765295, “Synthesis, pharmacological profile and 2D-QSAR studies of curcumin-amino acid conjugates as potential drug candidates” (Eur J Med Chem, 2020).
Values joined by “and” are separate entries in the source; they are usually repeats but may differ in a detail not shown here. Identical values can stand only once. Values belong to the molecule of their own block, whether it stands above or below them.

Key:
Rattus norvegicus [1] = assay: Anti-inflammatory activity in Wistar rat assessed as inhibition of carrageenan-induced paw edema at 10 mg/kg, ip pretreated for 1 hr followed by carrageenan challenge and measured after 1 hr relative to control (reference value: 0.00 +/-0.02 %); assay type: functional; conditions: time 2 hrs
Peritoneal macrophage [2] = assay: Antiinflammatory activity in […] mouse Peritoneal macrophages assessed as inhibition of LPS-induced NO production at 10 uM preincubated for 1 hr followed by LPS stimulation measured after 24 hrs by Griess method relative to control (reference value: 0.0 %); assay type: functional; design: scale not given: the % may be the effect or the level left; conditions: time 25 hrs
Rattus norvegicus [3] = assay: Anti-inflammatory activity in Wistar rat assessed as inhibition of carrageenan-induced paw edema at 10 mg/kg, ip pretreated for 1 hr followed by carrageenan challenge and measured after 4 hr relative to indomethacin; assay type: functional; conditions: time 5 hrs
Rattus norvegicus [4] = assay: Anti-inflammatory activity in Wistar rat assessed as inhibition of carrageenan-induced paw edema at 10 mg/kg, ip pretreated for 1 hr followed by carrageenan challenge and measured after 2 hr relative to control (reference value: 0.00 +/-0.03 %); assay type: functional; conditions: time 3 hrs
Rattus norvegicus [5] = assay: Antiinflammatory activity in Wistar rat model of carrageenan-induced paw edema assessed as reduction in thickness of paw edema at 10 mg/kg, ip pretreated for 1 hr followed by carrageenan challenge and measured after 2 hrs (reference value: 2.06 +/-0.09 mm); assay type: functional; conditions: time 3 hrs
Mus musculus [6] = assay: Analgesic activity in albino mouse assessed as forepaw licking/jumping latency time at 10 mg/kg, ip measured after 90 mins by hot plate test (reference value: 2.72 +/- 0.01 sec); assay type: functional; conditions: 1.5 h
Mus musculus [7] = assay: Analgesic activity in albino mouse assessed protection against acetic acid-induced abdominal writhing at 10 mg/kg, ip pretreated for 1 hr followed by acetic acid challenge and measured starting 5 mins post acetic acid challenge for 10 mins relative to indomethacin; assay type: functional; conditions: time 75 min, 1.25 h
Peritoneal macrophage [8] = assay: Antiinflammatory activity in […] mouse Peritoneal macrophages assessed as reduction in LPS-induced NO production by measuring reduction in stimulation index at 10 uM preincubated for 1 hr followed by LPS stimulation measured after 24 hrs by Griess method (reference value: 27.31 +/- 2.56 uM); assay type: functional; conditions: time 25 hrs
Rattus norvegicus [9] = assay: Antiinflammatory activity in Wistar rat model of carrageenan-induced paw edema assessed as reduction in thickness of paw edema at 10 mg/kg, ip pretreated for 1 hr followed by carrageenan challenge and measured after 4 hrs (reference value: 1.40 +/-0.10 mm); assay type: functional; conditions: time 5 hrs
Mus musculus [10] = assay: Analgesic activity in albino mouse assessed as protection at 10 mg/kg, ip measured after 120 mins by hot plate test (reference value: 0 %); assay type: functional; conditions: 2 h
Streptococcus pyogenes = assay: Antibacterial activity against Streptococcus pyogenes ATCC 19615 incubated for 18 hrs by agar dilution method; assay type: functional
Rattus norvegicus [11] = assay: Anti-inflammatory activity in Wistar rat assessed as inhibition of carrageenan-induced paw edema at 10 mg/kg, ip pretreated for 1 hr followed by carrageenan challenge and measured after 4 hr relative to control (reference value: 0.00 +/-0.4 %); assay type: functional; conditions: time 5 hrs
Rattus norvegicus [12] = assay: Antiinflammatory activity in Wistar rat model of carrageenan-induced paw edema assessed as reduction in thickness of paw edema at 10 mg/kg, ip pretreated for 1 hr followed by carrageenan challenge and measured after 1 hr (reference value: 2.41 +/-0.05 mm); assay type: functional; conditions: time 1 hr after carrageenan
Rattus norvegicus [13] = assay: Antiinflammatory activity in Wistar rat model of carrageenan-induced paw edema assessed as reduction in thickness of paw edema at 10 mg/kg, ip pretreated for 1 hr followed by carrageenan challenge and measured after 3 hrs (reference value: 1.79 +/-0.07 mm); assay type: functional; conditions: time 4 hrs
Rattus norvegicus [14] = assay: Anti-inflammatory activity in Wistar rat assessed as inhibition of carrageenan-induced paw edema at 10 mg/kg, ip pretreated for 1 hr followed by carrageenan challenge and measured after 24 hr relative to control (reference value: 0.00 +/-0.3 %); assay type: functional; conditions: time 25 hrs
[15] = Ulcerogenic activity in fasted albino mouse assessed as ulcer index in gastric mucosa at 10 mg/kg, po for 3 days (reference value: 0); assay type: toxicity, organism-based; conditions: in vivo, 72 h, time 3 day
[16] = Ulcerogenic activity in fasted albino mouse assessed as average number of ulcers in gastric mucosa at 10 mg/kg, po for 3 days (reference value: 0); assay type: toxicity, organism-based; conditions: in vivo, 72 h, time 3 day
Mus musculus [17] = assay: Analgesic activity in albino mouse assessed as forepaw licking/jumping latency time at 10 mg/kg, ip measured after 60 mins by hot plate test (reference value: 3.42 +/- 0.03 sec); assay type: functional; conditions: 1 h
[18] = Ulcerogenic activity in fasted albino mouse assessed as incidence of gastric ulceration at 10 mg/kg, po for 3 days (reference value: 0 %); assay type: toxicity, organism-based; conditions: in vivo, 72 h, time 3 day
Splenocyte [19] = assay: Immunomodulatory activity in Swiss albino mouse splenocytes assessed as cell viability at 10 uM by measuring inhibition of stimulation index incubated for 72 hrs in presence of mitogenic stimulus phytohaemagglutinin by MTT assay relative to indomethacin; assay type: functional; conditions: read-out: Activity
Mus musculus [20] = assay: Analgesic activity in albino mouse assessed as forepaw licking/jumping latency time at 10 mg/kg, ip measured after 120 mins by hot plate test (reference value: 2.62 +/- 0.06 sec); assay type: functional; conditions: 2 h
Mus musculus [21] = assay: Analgesic activity in albino mouse assessed as protection at 10 mg/kg, ip measured after 60 mins by hot plate test (reference value: 0 %); assay type: functional; conditions: 1 h
Rattus norvegicus [22] = assay: Antiinflammatory activity in Wistar rat model of carrageenan-induced paw edema assessed as reduction in thickness of paw edema at 10 mg/kg, ip pretreated for 1 hr followed by carrageenan challenge and measured after 24 hrs (reference value: 0.83 +/-0.08 mm); assay type: functional; conditions: time 25 hrs
Candida albicans = assay: Antifungal activity against Candida albicans incubated for 18 to 24 hrs by CLSI method; assay type: functional; conditions: time 18-24 hrs
Mus musculus [23] = assay: Analgesic activity in albino mouse assessed as protection at 10 mg/kg, ip measured after 90 mins by hot plate test (reference value: 0 %); assay type: functional; conditions: 1.5 h
Mus musculus [24] = assay: Analgesic activity in albino mouse assessed as forepaw licking/jumping latency time at 10 mg/kg, ip measured after 30 mins by hot plate test (reference value: 5.02 +/- 0.09 sec); assay type: functional; conditions: 0.5 h
Mus musculus [25] = assay: Analgesic activity in albino mouse assessed as protection at 10 mg/kg, ip measured after 30 mins by hot plate test (reference value: 0 %); assay type: functional; conditions: 0.5 h
Staphylococcus aureus = assay: Antibacterial activity against Staphylococcus aureus ATCC 25923 incubated for 18 hrs by agar dilution method; assay type: functional
[26] = Toxicity in albino mouse assessed as induction of toxic symptoms at 50 to 100 mg/kg, ip measured after 24 hrs; assay type: organism-based; conditions: in vivo, dose 50-100 mg/kg
Splenocyte [27] = assay: Immunomodulatory activity in Swiss albino mouse splenocytes assessed as cell viability at 10 uM by measuring stimulation index incubated for 72 hrs in presence of mitogenic stimulus phytohaemagglutinin by MTT assay (reference value: 1.00 +/- 0.24); assay type: functional
Rattus norvegicus [28] = assay: Anti-inflammatory activity in Wistar rat assessed as inhibition of carrageenan-induced paw edema at 10 mg/kg, ip pretreated for 1 hr followed by carrageenan challenge and measured after 3 hr relative to control (reference value: 0.00 +/-0.1 %); assay type: functional; conditions: time 4 hrs
Salmonella typhimurium = assay: Antibacterial activity against Salmonella typhimurium ATCC 19430 incubated for 18 hrs by agar dilution assay; assay type: functional, Salmonella enterica subsp. enterica serovar Typhimurium; conditions: Salmonella enterica
[29] = Ulcerogenic activity in fasted albino mouse assessed as average severity of ulcers in gastric mucosa at 10 mg/kg, po for 3 days (reference value: 0); assay type: toxicity, organism-based; conditions: in vivo, 72 h, time 3 day
Mus musculus [30] = assay: Analgesic activity in albino mouse assessed as protection at 10 mg/kg, ip measured after 120 mins by hot plate test relative to indomethacin; assay type: functional; conditions: 2 h
Pseudomonas aeruginosa = assay: Antibacterial activity against Pseudomonas aeruginosa ATCC 27853 incubated for 18 hrs by agar dilution assay; assay type: functional
Mus musculus [31] = assay: Analgesic activity in albino mouse assessed reduction in acetic acid-induced abdominal writhing by measuring writing reflex at 10 mg/kg, ip pretreated for 1 hr followed by acetic acid challenge and measured starting 5 mins post acetic acid challenge for 10 mins (reference value: 42.4 +/- 1.02); assay type: functional; conditions: time 75 min, 1.25 h
Mus musculus [32] = assay: Analgesic activity in albino mouse assessed protection against acetic acid-induced abdominal writhing at 10 mg/kg, ip pretreated for 1 hr followed by acetic acid challenge and measured starting 5 mins post acetic acid challenge for 10 mins relative to control (reference value: 0 %); assay type: functional; conditions: time 75 min, 1.25 h

MIC (Streptococcus pyogenes): 0.125 µg/mL and 0.116 µM
MIC (Candida albicans): 0.5 µg/mL and 0.465 µM
MIC (Staphylococcus aureus): 0.25 µg/mL and 0.233 µM
MIC (Salmonella typhimurium): 2 µg/mL and 1.86 µM
MIC (Pseudomonas aeruginosa): 2 µg/mL and 1.86 µM
SMILES: COc1cc(/C=C/C(=O)/C=C(O)/C=C/c2ccc(OC(=O)[C@H](CCSC)NC(=O)OCC3c4ccccc4-c4ccccc43)c(OC)c2)ccc1OC(=O)[C@H](CCSC)NC(=O)OCC1c2ccccc2-c2ccccc21
inhibition in vivo at 10 mg/kg (Rattus norvegicus [1]): 46%
Activity (Peritoneal macrophage [2]): 47.91%
inhibition in vivo at 10 mg/kg (Rattus norvegicus [3]): 113%
inhibition in vivo at 10 mg/kg (Rattus norvegicus [4]): 73%
Activity (Rattus norvegicus [5]): 0.56 mm
Time (Mus musculus [6]): 3.38 s
Activity (Mus musculus [7]): 100.3%
Activity (Peritoneal macrophage [8]): 14.23 µM
Activity (Rattus norvegicus [9]): 0.03 mm
Activity (Mus musculus [10]): 13.7%
inhibition in vivo at 10 mg/kg (Rattus norvegicus [11]): 98%
Activity (Rattus norvegicus [12]): 1.3 mm
Activity (Rattus norvegicus [13]): 0.45 mm
inhibition in vivo at 10 mg/kg (Rattus norvegicus [14]): 23%
UI [15]: 0
Activity [16]: 0
Time (Mus musculus [17]): 5.02 s
Activity [18]: 0%
viability at 10 µM (Splenocyte [19]): 113%
Time (Mus musculus [20]): 2.98 s
Activity (Mus musculus [21]): 46.8%
Activity (Rattus norvegicus [22]): 0.64 mm
Activity (Mus musculus [23]): 24.3%
Time (Mus musculus [24]): 6.82 s
Activity (Mus musculus [25]): 35.9%
Activity [26]: Non-Toxic
Activity_index (Splenocyte [27]): 1.07
inhibition in vivo at 10 mg/kg (Rattus norvegicus [28]): 75%
Activity [29]: 0
Activity (Mus musculus [30]): 32.6%
Activity (Mus musculus [31]): 16.2
Activity (Mus musculus [32]): 61.8%

MIC (Streptococcus pyogenes): 0.125 µg/mL and 0.139 µM
MIC (Candida albicans): 0.125 µg/mL and 0.139 µM
MIC (Staphylococcus aureus): 0.125 µg/mL and 0.139 µM
MIC (Salmonella typhimurium): 0.5 µg/mL and 0.556 µM
MIC (Pseudomonas aeruginosa): 1 µg/mL and 1.11 µM
SMILES: COc1cc(/C=C/C(=O)/C=C(O)/C=C/c2ccc(OC(=O)[C@@H](CCSC)NC(=O)OCc3ccccc3)c(OC)c2)ccc1OC(=O)[C@@H](CCSC)NC(=O)OCc1ccccc1
inhibition in vivo at 10 mg/kg (Rattus norvegicus [1]): 79%
Activity (Peritoneal macrophage [2]): 40.84%
inhibition in vivo at 10 mg/kg (Rattus norvegicus [3]): 108%
inhibition in vivo at 10 mg/kg (Rattus norvegicus [4]): 80%
Activity (Rattus norvegicus [5]): 0.41 mm
Time (Mus musculus [6]): 4.88 s
Activity (Mus musculus [7]): 29.1%
Activity (Peritoneal macrophage [8]): 16.16 µM
Activity (Rattus norvegicus [9]): 0.08 mm
Activity (Mus musculus [10]): 78.6%
inhibition in vivo at 10 mg/kg (Rattus norvegicus [11]): 94%
Activity (Rattus norvegicus [12]): 0.51 mm
Activity (Rattus norvegicus [13]): 0.27 mm
inhibition in vivo at 10 mg/kg (Rattus norvegicus [14]): 90%
UI [15]: 0
Activity [16]: 0
Time (Mus musculus [17]): 5.44 s
Activity [18]: 0%
viability at 10 µM (Splenocyte [19]): 88.5%
Time (Mus musculus [20]): 4.68 s
Activity (Mus musculus [21]): 59.1%
Activity (Rattus norvegicus [22]): 0.08 mm
Activity (Mus musculus [23]): 79.4%
Time (Mus musculus [24]): 5.48 s
Activity (Mus musculus [25]): 9.2%
Activity [26]: Non-Toxic
Activity_index (Splenocyte [27]): 1.37
inhibition in vivo at 10 mg/kg (Rattus norvegicus [28]): 85%
Activity [29]: 0
Activity (Mus musculus [30]): 187.1%
Activity (Mus musculus [31]): 34.8
Activity (Mus musculus [32]): 17.9%
